Measured values published in patent publication US20260109721A1, “IONIZABLE CATIONIC LIPIDS INCORPORATING SILICON: SYNTHESIS AND LNP FORMULATION” (priority 2023, published 2026).

Key:
HeLa cells [1] = assay: Transfection efficiency with Luciferase (SecNLuc) mRNA, Nano-Glo assay (Method A); type: cell-based; conditions: Luc mRNA, 24 h, luminescence; for Transfection 10 ng mRNA: 10 ng mRNA/well; for Transfection 50 ng mRNA: 50 ng mRNA/well; for Transfection 100 ng mRNA: 100 ng mRNA/well
In short: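 Luminescence from secreted NanoLuc, read with Nano-Glo reagent, gave transfection efficiency 24 h after HeLa cells were dosed. Method A lipid nanoparticles delivered SecNLuc mRNA at 10, 50 or 100 ng per well in triplicate.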

HeLa cells [2] = assay: Cell viability assessment with resazurin assay (Method A); type: cell-based; conditions: human
In short: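 Viability is given as percent of control metabolic activity: background-corrected resorufin fluorescence (ex 540, em 610 nm), with OptiMEM-only wells set to 100%. Resazurin at 0.025 mg/ml in DMEM/F12 with 10% FCS was applied to LNP-transfected HeLa cells for 50 min at 37 °C.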

SMILES | Transfection 10 ng mRNA (HeLa cells [1]) | Transfection 50 ng mRNA (HeLa cells [1]) | Transfection 100 ng mRNA (HeLa cells [1]) | Cell Viability % (Average metabolic rate over all doses, Resazurin) (HeLa cells [2])
CCCCCCCC/C=C\CCCCCCCCOC(=O)C(C)(C)CC(OCCCCCCCC/C=C\CCCCCCCC)O[Si](C)(C)OCCCCCCN(C)CCCCO (stereo not drawn) [Example 91, (Z)-octadec-9-en-1-yl 18-hydroxy-2,2,6,6,14-pentamethyl-4-(((Z)-octadec-9-en-1-yl)oxy)-5,7-dioxa-14-aza-6-silaoctadecanoate] | 7.02E+03 | 1.13E+05 | 7.45E+05 | 105%
CCCCC/C=C\C/C=C\CCCCCCCCOC(CCCCCCC/C=C\C/C=C\CCCCC)O[Si](C)(C)O[Si](C)(C)CCCCCCN(CCO)CCO (stereo not drawn) [Example 82, (24Z,27Z)-14-((8Z,11Z)-heptadeca-8,11-dien-1-yl)-3-(2-hydroxyethyl)-10,10,12,12-tetramethyl-11,13,15-trioxa-3-aza-10,12-disilatritriaconta-24,27-dien-1-ol] | 1.16E+03 | 7.26E+03 | 3.59E+04 | 97%
CCCCCCCC/C=C\CCCCCCCCOC(CCCCCCC/C=C\CCCCCCCC)O[Si](C)(C)OCCCCCCN(CCO)CCO (stereo not drawn) [Example 47, (Z)-13-((Z)-heptadec-8-en-1-yl)-3-(2-hydroxyethyl)-11,11-dimethyl-10,12,14-trioxa-3-aza-11-siladotriacont-23-en-1-ol] | 3.37E+04 | 1.29E+06 | 7.06E+06 | 89%
CCCCCCCC/C=C\CCCCCCCCOC(CCCCCCC/C=C\CCCCCCCC)O[Si](C)(C)OCCCCCCN(C)[C@H](CO)Cc1ccccc1 (stereo partly drawn) [Example 78, (2S,Z)-2-benzyl-13-((Z)-heptadec-8-en-1-yl)-3,11,11-trimethyl-10,12,14-trioxa-3-aza-11-siladotriacont-23-en-1-ol] | 2.45E+03 | 1.55E+04 | 3.54E+04 | 121%
CCCCCCCC/C=C\CCCCCCCC(OCCCCCCCCCCCC1CCCCC1)O[Si](C)(C)OCCCCCCN(CCO)CCO (stereo not drawn) [Example 74, (Z)-25-cyclohexyl-13-(heptadec-8-en-1-yl)-3-(2-hydroxyethyl)-11,11-dimethyl-10,12,14-trioxa-3-aza-11-silapentacosan-1-ol] | 2.47E+03 | 3.87E+04 | 1.11E+05 | 107%
CCCCC/C=C\C/C=C\CCCCCCCCOC(CCCCCCC/C=C\C/C=C\CCCCC)O[Si](C)(C)OCCCCCCN(CCO)CCN(CCO)CCCCCCO[Si](C)(C)OC(CCCCCCC/C=C\C/C=C\CCCCC)OCCCCCCCC/C=C\C/C=C\CCCCC (stereo not drawn) [Example 71, (26Z,29Z)-16-((8Z,11Z)-heptadeca-8,11-dien-1-yl)-3-((20Z,23Z)-10-((8Z,11Z)-heptadeca-8,11-dien-1-yl)-8,8-dimethyl-7,9,11-trioxa-8-silanonacosa-20,23-dien-1-yl)-6-(2-hydroxyethyl)-14,14-dimethyl-13,15,17-trioxa-3,6-diaza-14-silapentatriaconta-26,29-dien-1-ol] | 3.24E+04 | 9.78E+05 | 5.19E+06 | 85%
CCCCC/C=C\C/C=C\CCCCCCCCOC(CCCCCN(CCO)CCO)O[Si](C)(C)OCCCCCCCC/C=C\C/C=C\CCCCC (stereo not drawn) [Example 39, (21Z,24Z)-3-(2-hydroxyethyl)-11,11-dimethyl-9-(((9Z,12Z)-octadeca-9,12-dien-1-yl)oxy)-10,12-dioxa-3-aza-11-silatriaconta-21,24-dien-1-ol] | 1.46E+05 | 1.40E+06 | 4.78E+06 | 102%
CCCCCCCC/C=C\CCCCCCCCOC(=O)C(C)(C)CC(OCCCCCCCC/C=C\CCCCCCCC)O[Si](C)(C)OCCCCCCN1CCCC1CO (stereo not drawn) [Example 90, (Z)-octadec-9-en-1-yl 4-((((6-(2-(hydroxymethyl)pyrrolidin-1-yl)hexyl)oxy)dimethylsilyl)oxy)-2,2-dimethyl-4-(((Z)-octadec-9-en-1-yl)oxy)butanoate] | 2.84E+04 | 1.06E+06 | 4.86E+06 | 106%
CCCCC/C=C\C/C=C\CCCCCCCCO[Si](C)(C)OC(CCCCCCC/C=C\C/C=C\CCCCC)OCCCCCCN(CCO)CCO (stereo not drawn) [Example 40, (23Z,26Z)-11-((8Z,11Z)-heptadeca-8,11-dien-1-yl)-3-(2-hydroxyethyl)-13,13-dimethyl-10,12,14-trioxa-3-aza-13-siladotriaconta-23,26-dien-1-ol] | 1.47E+05 | 2.13E+06 | 8.09E+06 | 100%
CCCCCCCC/C=C\CCCCCCCCOC(=O)C(C)(C)CC(OCCCCCCCC/C=C\CCCCCCCC)O[Si](C)(C)OCCCCCCN1CCCCC1CO (stereo not drawn) [Example 89, (Z)-octadec-9-en-1-yl 4-((((6-(2-(hydroxymethyl)piperidin-1-yl)hexyl)oxy)dimethylsilyl)oxy)-2,2-dimethyl-4-(((Z)-octadec-9-en-1-yl)oxy)butanoate] | 1.10E+06 | 7.47E+06 | 1.54E+07 | 96%
CCCCC/C=C\C/C=C\CCCCCCCCOC(CCCCCCC/C=C\C/C=C\CCCCC)O[Si](C)(C)OCCCCCCN(C)Cc1cn(C2[C@H](O)O[C@H](CO)[C@@H](O)[C@@H]2O)nn1 (stereo partly drawn) [Example 68, (4R,5S,6R)-3-(4-((22Z,25Z)-12-((8Z,11Z)-heptadeca-8,11-dien-1-yl)-2,10,10-trimethyl-9,11,13-trioxa-2-aza-10-silahentriaconta-22,25-dien-1-yl)-1H-1,2,3-triazol-1-yl)-6-(hydroxymethyl)tetrahydro-2H-pyran-2,4,5-triol] | 2.74E+02 | 1.30E+03 | 7.84E+03 | 92%
CCCCCCCC/C=C\CCCCCCCC(OCC(CCCCCCCC)SCCCCCCCCCC)O[Si](C)(C)OCCCCCCN(CCO)CCO (stereo not drawn) [Example 73, (Z)-13-(heptadec-8-en-1-yl)-3-(2-hydroxyethyl)-11,11-dimethyl-16-octyl-10,12,14-trioxa-17-thia-3-aza-11-silaheptacosan-1-ol] | 6.90E+01 | 9.88E+02 | 4.08E+03 | 107%
CCCCC/C=C\C/C=C\CCCCCCCCOC(CCCCCCC/C=C\C/C=C\CCCCC)O[Si](C)(C)OCCCCCCN1CCN(CCO)CC1 (stereo not drawn) [Example 58, 2-(4-((20Z,23Z)-10-((8Z,11Z)-heptadeca-8,11-dien-1-yl)-8,8-dimethyl-7,9,11-trioxa-8-silanonacosa-20,23-dien-1-yl)piperazin-1-yl)ethan-1-ol] | 3.85E+02 | 3.92E+03 | 7.51E+03 | 97%
CCCCCCCC/C=C\CCCCCCCC(OCCC(C)CCCC(C)CCCC(C)CCCC(C)C)O[Si](C)(C)OCCCCCCN(CCO)CCO (stereo not drawn) [Example 75, (Z)-13-(heptadec-8-en-1-yl)-3-(2-hydroxyethyl)-11,11,17,21,25,29-hexamethyl-10,12,14-trioxa-3-aza-11-silatriacontan-1-ol] | 1.68E+03 | 2.82E+04 | 1.07E+05 | 120%
CCCCCCCC/C=C\CCCCCCCCOC(=O)C(C)(C)CC(OCCCCCCCC/C=C\CCCCCCCC)O[Si](C)(C)OCCCCCCN(CCCO)CCCO (stereo not drawn) [Example 88, (Z)-octadec-9-en-1-yl 1-hydroxy-4-(3-hydroxypropyl)-12,12,16,16-tetramethyl-14-(((Z)-octadec-9-en-1-yl)oxy)-11,13-dioxa-4-aza-12-silaheptadecan-17-oate] | 6.30E+03 | 9.95E+04 | 5.10E+05 | 91%
